Data reported in patent publication US11512053B2, “Arginine methyltransferase inhibitors and uses thereof” (priority 2013, dated 2022).
Like-named read-outs stand apart in the source and are kept apart here.

Biological target: T1, full-length human PRMT3 isoform 1 (GST-tagged) (Homo sapiens, UniProt O60678)
T1 construct: GST-tagged PRMT3; made in house; host or cells: E. coli BL21(DE3) Gold
Assay: PRMT3 Biochemical Assay (3H-SAM Flashplate, peptide substrate)
Source text: General Materials. S-adenosylmethionine (SAM), S-adenosylhomocysteine (SAH), bicine, Tween20, dimethylsulfoxide (DMSO), bovine skin gelatin (BSG),), isopropyl-β-D-thiogalactopyranoside (IPTG), and Tris(2-carboxyethyl)phosphine hydrochloride solution (TCEP) were purchased from Sigma-Aldrich at the highest level of purity possible. ^3H-SAM was purchase from American Radiolabeled Chemicals with a specific activity of 80 Ci/mmol. 384-well streptavidin Flashplates were purchased from PerkinElmer.
Substrates. Peptide containing the classic RMT substrate motif was synthesized with an N-terminal linker-affinity tag motif and a C-terminal amide cap by 21st Century Biochemicals. The peptide was purified by high-performance liquid chromatography (HPLC) to greater than 95% purity and confirmed by liquid chromatography mass spectrometry (LC-MS). The sequence was Biot-Ahx-[…]-amide (SEQ ID NO.:11).
Molecular Biology: Full-length human PRMT3 (NM_005788.3) isoform 1 transcript clone was amplified from an HEK 293 cDNA library and subcloned into pGEX-KG (GE Life Sciences). The resulting construct encodes an N-terminal GST tag and a thrombin cleavage sequence ([…] […] […] […] S) (SEQ ID NO.:12) fused directly to Cys 2 of PRMT3.
Protein Expression. E. coli (BL21(DE3) Gold, Stratagene) made competent by the CaCl2) method were transformed with the PRMT3 construct and ampicillin selection. Protein over-expression was accomplished by growing the PRMT3 expressing E. coli clone and inducing expression with 0.3 mM IPTG at 16° C. The culture was grown for 12 hours, harvested by centrifugation, and stored at −80° C. for purification.
Protein Purification. […] GST-tagged PRMT3 was eluted with 50 mM Tris, 2 mM glutathione, pH 7.1 and 50 mM Tris, 20 mM glutathione, pH 7.1. Pooled fractions were dialysed in 20 mM Tris, 50 mM NaCl, 5% glycerol, 1 mM EDTA, 1 mM DTT, pH7.5 (Buffer B) and applied to a Q Sepharose Fast Flow column. GST-tagged PRMT3 was eluted by 500 mM NaCl in buffer B. Pooled fractions were dialyzed in 25 mM phosphate buffer, 100 mM NaCl, 5% glycerol, 2 mM DTT, pH 6.8 (Buffer C) and loaded on to a ceramic hydroxyapatite column. GST-tagged PRMT3 eluted with 25-400 mM phosphate in buffer C. Protein was concentrated and buffer was exchanged to 20 mM Tris, 150 mM NaCl, 5% glycerol, 5 mM β-mercaptoethanol, pH7.8 by ultrafiltration. The purity of recovered protein was 70%.
General Procedure for PRMT3 Enzyme Assays on Peptide Substrates. The assays were all performed in a buffer consisting of 20 mM Bicine (pH=7.6), 1 mM TCEP, 0.005% BSG, and 0.002% Tween 20, prepared on the day of use. Compounds in 100% DMSO (1 ul) were spotted into a polypropylene 384-well V-bottom plates (Greiner) using a Platemate Plus outfitted with a 384-channel head (Thermo Scientific). DMSO (1 ul) was added to Columns 11, 12, 23, 24, rows A-H for the maximum signal control and 1 ul of SAH, a known product and inhibitor of PRMT3, was added to columns 11, 12, 23, 24, rows I-P for the minimum signal control. A cocktail (40 ul) containing the PRMT3 enzyme was added by Multidrop Combi (Thermo-Fisher). The compounds were allowed to incubate with PRMT3 for 30 min at room temperature, then a cocktail (10 ul) containing SAM and peptide was added to initiate the reaction (final volume=51 ul). The final concentrations of the components were as follows: PRMT3 was 0.5 nM, ^3H-SAM was 100 nM, non-radiolabeled SAM was 1.8 uM, peptide was 330 nM, SAH in the minimum signal control wells was 1 mM, and the DMSO concentration was 2%. The assays were stopped by the addition of potassium chloride (10 ul) to a final concentration of 100 mM. 50 ul of the reaction in the 384-well polypropylene plate was then transferred to a 384-well Flashplate and the biotinylated peptides were allowed to bind to the streptavidin surface for at least 1 hour before being washed once with 0.1% Tween20 in a Biotek ELx405 plate washer. […]

T1 sequence (O60678 with tags, fused parts or gaps): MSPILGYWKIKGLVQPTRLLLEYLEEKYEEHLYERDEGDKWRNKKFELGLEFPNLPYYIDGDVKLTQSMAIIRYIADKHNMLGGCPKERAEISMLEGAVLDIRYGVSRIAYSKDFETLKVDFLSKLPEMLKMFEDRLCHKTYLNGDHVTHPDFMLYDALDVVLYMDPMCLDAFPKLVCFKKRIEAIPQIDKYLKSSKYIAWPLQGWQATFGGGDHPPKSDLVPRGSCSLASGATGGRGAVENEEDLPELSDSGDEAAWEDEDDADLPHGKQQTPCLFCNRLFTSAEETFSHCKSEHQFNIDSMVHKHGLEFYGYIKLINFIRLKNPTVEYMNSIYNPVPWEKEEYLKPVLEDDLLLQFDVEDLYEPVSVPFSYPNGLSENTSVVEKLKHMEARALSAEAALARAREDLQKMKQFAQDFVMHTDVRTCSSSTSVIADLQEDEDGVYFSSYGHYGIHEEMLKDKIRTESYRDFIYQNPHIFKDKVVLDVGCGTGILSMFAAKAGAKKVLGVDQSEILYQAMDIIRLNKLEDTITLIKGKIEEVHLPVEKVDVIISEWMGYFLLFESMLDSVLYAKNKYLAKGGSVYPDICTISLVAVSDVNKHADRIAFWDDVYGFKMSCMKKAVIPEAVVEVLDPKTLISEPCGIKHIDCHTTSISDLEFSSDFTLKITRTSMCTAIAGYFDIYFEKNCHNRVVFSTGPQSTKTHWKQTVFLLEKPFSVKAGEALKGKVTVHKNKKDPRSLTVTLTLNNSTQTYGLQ

IC50: 3.01 to 10 µM | IC50 (single experiment or average of multiple experiments): 8.93 µM
SMILES: CN(CCN)Cc1c[nH]nc1CCc1ccccc1 [Compound 9]
